Mortality data for 18 compounds are collected here from ChEMBL document CHEMBL3045271, “Synthesis and insecticidal activity of new phosphoramidates” (2012).

Common to all, as to type: functional
Assay [1] deals with Ascia monuste. The assay is described as follows: Insecticidal activity against second-instar larvae of Ascia monuste assessed as mortality at compound administered topically at 1 ug/mg insect measured after 24 hr.
In assay [2] the test system is Ascia monuste. In words: Insecticidal activity against second-instar larvae of Ascia monuste assessed as mortality at compound administered topically at 1 ug/mg insect measured after 48 hr.
Assay [3] deals with Plutella xylostella. The assay is described as follows: Insecticidal activity against second-instar larvae of Plutella xylostella (diamondback moth) assessed as mortality at compound administered topically at 1 ug/mg insect measured after 72 hr.
Assay [4] concerns Plutella xylostella. The assay is described as follows: Insecticidal activity against second-instar larvae of Plutella xylostella (diamondback moth) assessed as mortality at compound administered topically at 1 ug/mg insect measured after 48 hr.
Assay [5] concerns Plutella xylostella. In words: Insecticidal activity against second-instar larvae of Plutella xylostella (diamondback moth) assessed as mortality at compound administered topically at 1 ug/mg insect measured after 24 hr.
The subject of assay [6] is Diaphania hyalinata. The assay is described as follows: Insecticidal activity against second-instar larvae of Diaphania hyalinata assessed as mortality at compound administered topically at 1 ug/mg insect measured after 48 hr.
The test system of assay [7] is Diaphania hyalinata. The assay is described as follows: Insecticidal activity against second-instar larvae of Diaphania hyalinata assessed as mortality at compound administered topically at 1 ug/mg insect measured after 72 hr.
Assay [8] has as its system Diaphania hyalinata. In words: Insecticidal activity against second-instar larvae of Diaphania hyalinata assessed as mortality at compound administered topically at 1 ug/mg insect measured after 24 hr.
Assay [9] has as its system Ascia monuste. The assay is described as follows: Insecticidal activity against second-instar larvae of Ascia monuste assessed as mortality at compound administered topically at 1 ug/mg insect measured after 72 hr.

On to `CCN(CC)P(=O)(Oc1ccco1)N(CC)CC`, for which the mortality in assay [1] was 2.5%; in [2], 10%; in assay [3], 22.5%; in assay [4], 10%; in assay [5] it was 7.5%; in assay [6], 22.5%. The mortality was 25% in [7], 22.5% in assay [8] and 12.5% in [9].

In the case of `COP(=S)(OC)Oc1nc(Cl)c(Cl)cc1Cl` [CHLORPYRIFOS-METHYL], the mortality in [1], in [2], in [3], in assay [4], in assay [5] and in assay [6] was 100% each time. For the same compound, the mortality in assay [7], in [8] and in assay [9] was 100% in each case.

`O=P(Oc1ccco1)(N1CCCCC1)N1CCCCC1`: the mortality is listed as 70% in assay [1]; 75% in assay [2]; 20% in assay [3]; 10% in [4]; 5% in assay [5]; 7.5% in [6]. Moreover, the mortality came out at 10% in assay [7], 7.5% in assay [8] and 75% in [9].

Take `O=P(NC1CCCCC1)(NC1CCCCC1)Oc1ccco1`: the mortality in [1] is listed as 70%; in assay [2] it was 70%; in assay [3] it was 12.5%; in assay [4] it was 7.5%; in assay [5], 2.5%; in assay [6], 2.5%. The mortality amounted to 10% in assay [7], 2.5% in [8] and 70% in [9].

For the compound `CCN(CC)P(=O)(Oc1occc1Cc1cccc(Br)c1)N(CC)CC`, the mortality in assay [1] is reported as 2.5%; in assay [2] it was 7.5%; in [3], 47.5%; in assay [4], 32.5%; in [5], 27.5%; in assay [6], 25%. Moreover, the mortality is listed as 27.5% in assay [7], 25% in assay [8] and 10% in assay [9].

As to `O=P(Oc1ccco1)(Oc1ccco1)N1CCCCC1`, the mortality in assay [1] was 87.5%; in assay [2], 87.5%; in assay [3], 10%; in [4], 5%; in [5], 5%; in assay [6] it was 7.5%. Further, the values for the mortality in [7], in assay [8] and in assay [9] were 17.5%, 7.5% and 90%, respectively.

Consider `CCN(CC)P(=O)(Oc1occc1Cc1ccc(Br)cc1)N(CC)CC`, for which the mortality in [1] came to 2.5%; in assay [2] it was 5%; in [3], 32.5%; in assay [4] it was 20%; in assay [5], 7.5%; in [6], 27.5%. In addition, the mortality was found to be 35% in [7], 27.5% in [8] and 7.5% in [9].

For the compound `O=C1C=CCO1` [FURAN-2(5H)-ONE], the mortality came out at 12.5% in assay [1]; 22.5% in [2]; 32.5% in assay [3]; 27.5% in [4]; 27.5% in [5]; 18.9% in assay [6]. Further, the figures for the mortality in assay [7], in [8] and in [9] were 24.3%, 18.9% and 25%, respectively.

For the compound `CCN(CC)P(=O)(Oc1occc1Cc1cccc(C)c1)N(CC)CC`, the mortality in assay [1] stood at 7.5%; in [2], 12.5%; in assay [3], 45%; in [4], 40%; in assay [5], 22.5%; in assay [6] it was 15%. Moreover, the results for the mortality in [7], in assay [8] and in assay [9] were 15%, 15% and 12.5%, respectively.

Turning to `CCN(CC)P(=O)(Oc1occc1Cc1cccc(F)c1)N(CC)CC`, the mortality in assay [1] is reported as 5%; in [2] it was 17.5%; in [3], 52.5%; in [4] it was 42.5%; in assay [5], 30%; in [6] it was 23.3%. The mortality in assay [7] came to 36.6%; in assay [8] it was 23.3%; in assay [9], 15%.

As for `CCN(CC)P(=O)(Oc1occc1Cc1ccccc1F)N(CC)CC`, the mortality in [1] was 22.5%; in assay [2] it was 27.5%; in assay [3] it was 35%; in assay [4], 22.5%; in assay [5], 12.5%; in [6], 23.3%. Also, the mortality in assay [7] stood at 23.3%; in [8] it was 23.3%; in assay [9] it was 32.5%.

On to `CCN(CC)P(=O)(Oc1occc1Cc1cccc(Cl)c1)N(CC)CC`, for which the mortality in assay [1] amounted to 0%; in assay [2], 7.5%; in assay [3], 37.5%; in assay [4], 22.5%; in [5], 5%; in assay [6], 12.5%. In addition, the mortality in assay [7], in assay [8] and in assay [9] was 12.5% in each case.

For `CCN(CC)P(=O)(Oc1occc1Cc1ccccc1Cl)N(CC)CC`, the mortality in [1] is on record as 5%; in assay [2] it was 5%; in assay [3], 45%; in [4] it was 32.5%; in assay [5], 20%; in assay [6] it was 10%. In addition, the mortality in assay [7] was 10%; in [8], 10%; in [9], 5%.

Regarding `CCN(CC)P(=O)(Oc1ccco1)Oc1ccco1`, the mortality in [1] is listed as 62.5%; in assay [2], 65%; in assay [3], 30%; in [4], 20%; in assay [5], 17.5%; in [6], 55%. For the same compound, the mortality worked out at 70% in assay [7], 55% in assay [8] and 67.5% in [9].

On to `CCN(CC)P(=O)(Oc1occc1Cc1ccccc1)N(CC)CC`, for which the mortality is listed as 22.5% in assay [1]; 27.5% in [2]; 45% in [3]; 30% in assay [4]; 25% in [5]; 5% in assay [6]. Besides, the mortality in assay [7] came out at 5%; in [8] it was 5%; in [9], 25%.

On to `CCN(CC)P(=O)(Oc1occc1Cc1ccc(C)cc1)N(CC)CC`, for which the mortality worked out at 5% in assay [1]; 15% in [2]; 32.5% in assay [3]; 25% in assay [4]; 20% in assay [5]; 25% in assay [6]. Also, the results for the mortality in assay [7], in assay [8] and in [9] were 30%, 25% and 17.5%, respectively.

For the compound `Cc1ccc(CC2=CCOC2=O)cc1`, the mortality in assay [1] was 5%; in assay [2], 12.5%; in assay [3], 25%; in assay [4] it was 17.5%; in assay [5] it was 12.5%; in assay [6], 10%. Besides, the mortality in assay [7] worked out at 12.5%; in assay [8], 10%; in assay [9], 17.5%.

`CCN(CC)P(=O)(Oc1occc1Cc1c(C)cccc1Cl)N(CC)CC`: the mortality in [1] was 5%; in [2] it was 15%; in [3], 37.5%; in assay [4], 20%; in [5], 5.3%; in assay [6], 20%. The mortality in assay [7], in [8] and in assay [9] was 20% in each case.
